In patent US20240018135A1, “COMPOUND HAVING INHIBITORY ACTIVITY AGAINST O-GLUSACASE AND USE THEREOF” (MEDIFRON DBT INC., priority 2020, published 2024):

Experiments:
[1] = biological target: Human OGA (recombinant hOGA protein) (Homo sapiens (Human), UniProt O60502); experiment: Human OGA enzyme activity assay (fluorescence, 4-Methylumbelliferyl N-acetyl-β-D-glucosaminide substrate); format: biochemical; settings: for IC50: Table 1; for % of inhibition: Table 1, test concentration not given
Human OGA (recombinant hOGA protein), sequence (O60502 whole entry): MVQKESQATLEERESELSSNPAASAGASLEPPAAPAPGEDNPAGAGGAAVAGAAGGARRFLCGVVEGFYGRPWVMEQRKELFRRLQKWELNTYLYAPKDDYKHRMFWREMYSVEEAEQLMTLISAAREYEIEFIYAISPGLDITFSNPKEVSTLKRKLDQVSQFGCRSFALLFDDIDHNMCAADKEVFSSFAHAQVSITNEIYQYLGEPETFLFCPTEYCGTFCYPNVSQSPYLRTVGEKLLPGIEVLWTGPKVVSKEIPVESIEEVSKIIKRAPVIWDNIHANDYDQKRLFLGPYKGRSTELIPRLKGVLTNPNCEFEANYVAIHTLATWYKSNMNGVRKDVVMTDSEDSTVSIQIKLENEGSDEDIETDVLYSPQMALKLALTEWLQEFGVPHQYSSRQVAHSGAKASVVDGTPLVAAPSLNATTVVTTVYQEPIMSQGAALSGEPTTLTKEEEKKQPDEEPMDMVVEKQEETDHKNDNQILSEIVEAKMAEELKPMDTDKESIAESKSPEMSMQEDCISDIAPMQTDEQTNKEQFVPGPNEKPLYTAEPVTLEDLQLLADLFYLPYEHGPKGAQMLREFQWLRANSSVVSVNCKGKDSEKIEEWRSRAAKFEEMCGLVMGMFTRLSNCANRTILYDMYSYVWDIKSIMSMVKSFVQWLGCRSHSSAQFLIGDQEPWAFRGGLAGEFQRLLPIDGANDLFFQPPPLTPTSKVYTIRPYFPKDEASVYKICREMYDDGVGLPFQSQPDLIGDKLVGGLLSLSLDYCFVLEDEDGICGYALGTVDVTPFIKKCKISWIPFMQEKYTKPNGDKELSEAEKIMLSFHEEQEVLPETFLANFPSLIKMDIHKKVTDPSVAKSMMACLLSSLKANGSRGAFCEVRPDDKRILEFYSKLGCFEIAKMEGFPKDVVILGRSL

SMILES	IC50 [1]	% of inhibition [1]	melting point
CC(=O)Nc1ncc(CN2CCN(CC(=O)Nc3ccc(F)cc3)CC2C)s1 (stereo not shown) [Compound A-33, 2-(4-((2-acetamidothiazol-5-yl)methyl)-3-methylpiperazin-1-yl)-N-(4-fluorophenyl)acetamide]	230 nM	97.9%	102 to 105 °C
CC(=O)Nc1ncc(CN2CCN(CC(=O)NC3CCCCC3)CC2C)s1 (stereo not shown) [Compound A-35, 2-(4-((2-acetamidothiazol-5-yl)methyl)-3-methylpiperazin-1-yl)-N-cyclohexylacetamide]	100 nM	98.4%	184 to 187 °C
CC(=O)Nc1ncc(CN2CCN(CC(=O)Nc3ccc(N4CCN(C(C)=O)CC4)cc3)CC2)s1 [Compound A-36, 2-(4-((2-acetamidothiazol-5 yl)methyl)piperazin-1-yl)-N-(4-(4-acetylpiperazin-1-yl)phenyl)acetamide]	1040 nM	96.2%	180 to 182 °C
CC(=O)Nc1ncc(CN2CCN(CC(=O)Nc3ccc(N4CCN(C(C)=O)CC4)cc3)CC2C)s1 (stereo not shown) [Compound A-37, 2-(4-((2-acetamidothiazol-5-yl)methyl)-3-methylpiperazin-1-yl)-N-(4-(4-acetylpiperazin-1-yl)phenyl)acetamide]	70 nM	98.4%	232 °C
CC(=O)Nc1ncc(CN2CCN(CC(=O)Nc3ccc(Cc4ccccc4)cc3)CC2)s1 [Compound A-38, 2-(4-((2-acetamidothiazol-5-yl)methyl)piperazin-1-yl)-N-(4-benzylphenyl)acetamide]	370 nM	90.8%	132 to 134 °C
CC(=O)Nc1ncc(CN2CCN(CC(=O)Nc3ccc(Cc4ccccc4)cc3)CC2C)s1 (stereo not shown) [Compound A-39, 2-(4-((2-acetamidothiazol-5-yl)methyl)-3-methylpiperazin-1-yl)-N-(4-benzylphenyl)acetamide]	60 nM	98.8%	193 to 195 °C
CC(=O)Nc1ncc(CN2CCN(CC(=O)NCc3ccc(-c4ccccc4)cc3)CC2)s1 [Compound A-40, N-([1,1′-biphenyl]-4-ylmethyl)-2-(4-((2-acetamidothiazol-5-yl)methyl)piperazin-1-yl)acetamide]	210 nM	97.7%	167 to 170 °C
CC(=O)Nc1ncc(CN2CCN(CC(=O)NCc3ccc(-c4ccccc4)cc3)CC2C)s1 (stereo not shown) [Compound A-41, N-([1,1′-biphenyl]-4-ylmethyl)-2-(4-((2-acetamidothiazol-5-yl)methyl)-3-methylpiperazin-1-yl)acetamide]	30 nM	99.6%	215 to 216 °C
CC(=O)Nc1ncc(CN2CCC(C(=O)Nc3ccccc3)CC2)s1 [Compound B-1, 1-((2-acetamidothiazol-5-yl)methyl)N-phenylpiperidine-4-carboxamide]	870 nM	87.0%	172 to 174 °C
CC(=O)Nc1ncc(CN2CCC(C(=O)Nc3ccc(Cl)cc3)CC2)s1 [Compound B-2, 1-((2-acetamidothiazol-5-yl)methyl)-N-(4-chlorophenyl)piperidine-4-carboxamide]	270 nM	91.0%	258 to 260 °C
CC(=O)Nc1ncc(CN2CCC(C(=O)Nc3ccc(C(C)C)cc3)CC2)s1 [Compound B-3, 1-((2-acetamidothiazol-5-yl)methyl)-N-(4-isopropylphenyl)piperidine-4-carboxamide]	680 nM	91.8%	257 to 258 °C
CC(=O)Nc1ncc(CN2CCC(C(=O)Nc3cnccn3)CC2)s1 [Compound B-4, 1-((2-acetamidothiazol-5-yl)methyl)-N-(pyrazin-2-yl)piperidine-4-carboxamide]		66.9%	178 to 180 °C
CC(=O)Nc1ncc(CN2CCC(C(=O)NC3CCCCC3)CC2)s1 [Compound B-5, 1-((2-acetamidothiazol-5-yl)methyl)-N-cyclohexylpiperidine-4-carboxamide]		46.7%	231 to 232 °C
CC(=O)Nc1ncc(CN2CCC(C(=O)Nc3ccc4ncccc4c3)CC2)s1 [Compound B-6, 1-((2-acetamidothiazol-5 yl)methyl)-N-(quinolin-6-yl)piperidine-4-carboxamide]	320 nM	91.4%	234 to 236 °C
CC(=O)Nc1ncc(CN2CCC(C(=O)NCc3ccccc3)CC2)s1 [Compound B-7, 1-((2-acetamidothiazol-5-yl)methyl)-N-benzylpiperidine-4-carboxamide]	1000 nM	88.2%	176 to 178 °C
COc1ccc(CNC(=O)C2CCN(Cc3cnc(NC(C)=O)s3)CC2)cc1 [Compound B-8, 1-((2-acetamidothiazol-5-yl)methyl)-N-(4-methoxybenzyl)piperidine-4-carboxamide]	860 nM	93.9%	215 to 217 °C
CC(=O)Nc1ncc(CN2CCC(C(=O)NC(C)c3ccc4c(c3)OCO4)CC2)s1 (stereo not shown) [Compound B-9, 1-((2-acetamidothiazol-5-yl)methyl)-N-(1-(benzo[d][1,3]dioxol-5-yl)ethyl)piperidine-4-carboxamide]	1010 nM	93.1%	211 to 213 °C
CC(=O)Nc1ncc(CN2CCC(C(=O)NC(C)c3ccccc3)CC2)s1 (stereo not shown) [Compound B-10, 1-((2-acetamidothiazol-5-yl)methyl)-N-(1-phenylethyl)piperidine-4-carboxamide]	900 nM	93.3%	178 to 179 °C
CC(=O)Nc1ncc(CN2CCC(C(=O)OC(C)c3ccc4c(c3)OCO4)CC2)s1 (stereo not shown) [Compound B-13, 1-(benzo[d][1,3]dioxol-5 yl)ethyl 1-((2-acetamidothiazol-5-yl)methyl)piperidine-4-carboxylate]	60 nM	98.9%	215 to 217 °C
CC(=O)Nc1ncc(CN2CCCC(C(=O)Nc3ccccc3)C2)s1 (stereo not shown) [Compound B-16, 1-((2-acetamidothiazol-5-yl)methyl)-N-phenylpiperidine-3-carboxamide]	230 nM	95.5%	257 to 259 °C
CC(=O)Nc1ncc(CN2CCCC(C(=O)Nc3ccc(F)cc3)C2)s1 (stereo not shown) [Compound B-17, 1-((2-acetamidothiazol-5-yl)methyl)-N-(4-fluorophenyl)piperidine-3-carboxamide]	340 nM	96.7%	127 to 129 °C
CC(=O)Nc1ncc(CN2CCCC(C(=O)Nc3ccc(C(C)C)cc3)C2)s1 (stereo not shown) [Compound B-18, 1-((2-acetamidothiazol-5-yl)methyl)-N-(4-isopropylphenyl)piperidine-3-carboxamide]	240 nM	96.4%	234 to 236 °C
CC(=O)Nc1ncc(CN2CCCC(C(=O)NC3CCCCC3)C2)s1 (stereo not shown) [Compound B-19, 1-((2-acetamidothiazol-5 yl)methyl)-N-cyclohexylpiperidine-3-carboxamide]	450 nM	97.6%	265 to 267 °C
